Bridge positions count the residues as written; N and C are the ends. Square brackets hold non-standard residues; d marks the D form. Peptide text beside a SMILES is read from it. 1Nal = N[C@@H](Cc1cccc2ccccc12)C(=O)O
Assays:
[1] = tested on: thapsigargin-induced IFN-g production in human whole blood; assay type: cell-based; settings: read-out: Analogue Activity (IC50) WB/IFNg
[2] = tested on: thapsigargin-induced IL-2 production in human whole blood; settings: read-out: Analogue Activity (IC50) WB/IL-2

Row | Structure (SMILES) | IC50 [1] | IC50 [2]
1 | CC[C@H](C)[C@@H]1NC(=O)[C@H](CCCCN)NC(=O)[C@@H](NC(=O)[C@H](CCCCN)NC(=O)[C@@H](NC(=O)[C@H](CC(N)=O)NC(=O)[C@@H](NC(=O)[C@@H](NC(=O)[C@@H](NC(=O)CN)C(C)C)[C@@H](C)CC)[C@@H](C)CC)C(C)C)CSSC[C@@H]2NC(=O)[C@H](CCCCN)NC(=O)CNC(=O)[C@H](Cc3ccccc3)NC(=O)[C@H](CCCNC(=N)N)NC(=O)[C@H](CCSC)NC(=O)CNC(=O)[C@H](C)NC(=O)[C@H](CCCCN)NC(=O)[C@H](CCCCN)NC(=O)[C@@H]3CSSC[C@@H](C(=O)N[C@H](C(=O)N4CCC[C@H]4C(=O)N[C@@H](CCCCN)C(=O)O)[C@@H](C)O)NC(=O)[C@H](Cc4c[nH]cn4)NC(=O)[C@H](CSSC[C@H](NC(=O)[C@H](CCC(=O)O)NC(=O)[C@H](CCCNC(=N)N)NC(=O)[C@H](CO)NC1=O)C(=O)N[C@@H](CC(C)C)C(=O)N[C@@H](CCC(=O)O)C(=O)N1CCC[C@H]1C(=O)N3)NC(=O)[C@H](CCCCN)NC(=O)CNC(=O)[C@H](CC(N)=O)NC(=O)[C@H](CCSC)NC2=O [Q13E] (H-GVIINVKCKISRECLEPCKKAGMRFGKCMNGKCHCTPK-OH; disulfide 8-28, 14-33, 18-35) | 0.799 nM | 1.06 nM
2 | CC[C@H](C)[C@@H]1NC(=O)[C@H](CCCCN)NC(=O)[C@@H](NC(=O)[C@H](CCCCN)NC(=O)[C@@H](NC(=O)[C@H](CC(N)=O)NC(=O)[C@@H](NC(=O)[C@@H](NC(=O)[C@@H](NC(=O)CN)C(C)C)[C@@H](C)CC)[C@@H](C)CC)C(C)C)CSSC[C@@H]2NC(=O)[C@H](CCCCN)NC(=O)CNC(=O)[C@H](Cc3ccccc3)NC(=O)[C@H](CCCNC(=N)N)NC(=O)[C@H](CCSC)NC(=O)CNC(=O)[C@H](C)NC(=O)[C@H](CCCCN)NC(=O)[C@H](CCCCN)NC(=O)[C@@H]3CSSC[C@@H](C(=O)N[C@H](C(=O)N4CCC[C@H]4C(=O)N[C@@H](CCCCN)C(=O)O)[C@@H](C)O)NC(=O)[C@H](Cc4c[nH]cn4)NC(=O)[C@H](CSSC[C@H](NC(=O)[C@H](CCCNC(=N)N)NC(=O)[C@H](CCCNC(=N)N)NC(=O)[C@H](CO)NC1=O)C(=O)N[C@@H](CC(C)C)C(=O)N[C@@H](CCC(=O)O)C(=O)N1CCC[C@H]1C(=O)N3)NC(=O)[C@H](CCCCN)NC(=O)CNC(=O)[C@H](CC(N)=O)NC(=O)[C@H](CCSC)NC2=O [Q13R] (H-GVIINVKCKISRRCLEPCKKAGMRFGKCMNGKCHCTPK-OH; disulfide 8-28, 14-33, 18-35) | 0.172 nM | 0.16 nM
3 | CC[C@H](C)[C@@H]1NC(=O)[C@H](CCCCN)NC(=O)[C@@H](NC(=O)[C@H](CCCCN)NC(=O)[C@@H](NC(=O)[C@H](CC(N)=O)NC(=O)[C@@H](NC(=O)[C@@H](NC(=O)[C@@H](NC(=O)CN)C(C)C)[C@@H](C)CC)[C@@H](C)CC)C(C)C)CSSC[C@@H]2NC(=O)[C@H](CCCCN)NC(=O)CNC(=O)[C@H](Cc3ccccc3)NC(=O)[C@H](CCCNC(=N)N)NC(=O)[C@H](CCSC)NC(=O)CNC(=O)[C@H](C)NC(=O)[C@H](CCCCN)NC(=O)[C@H](CCCCN)NC(=O)[C@@H]3CSSC[C@@H](C(=O)N[C@H](C(=O)N4CCC[C@H]4C(=O)N[C@@H](CCCCN)C(=O)O)[C@@H](C)O)NC(=O)[C@H](Cc4c[nH]cn4)NC(=O)[C@H](CSSC[C@H](NC(=O)[C@H](CCC(N)=O)NC(=O)[C@H](CCC(=O)O)NC(=O)[C@H](CO)NC1=O)C(=O)N[C@@H](CC(C)C)C(=O)N[C@@H](CCC(=O)O)C(=O)N1CCC[C@H]1C(=O)N3)NC(=O)[C@H](CCCCN)NC(=O)CNC(=O)[C@H](CC(N)=O)NC(=O)[C@H](CCSC)NC2=O [R12E] (H-GVIINVKCKISEQCLEPCKKAGMRFGKCMNGKCHCTPK-OH; disulfide 8-28, 14-33, 18-35) | 2 nM | 1.79 nM
4 | CC[C@H](C)[C@@H]1NC(=O)[C@H](CCCCN)NC(=O)[C@@H](NC(=O)[C@H](CCCCN)NC(=O)[C@@H](NC(=O)[C@H](CC(N)=O)NC(=O)[C@@H](NC(=O)[C@@H](NC(=O)[C@@H](NC(=O)CN)C(C)C)[C@@H](C)CC)[C@@H](C)CC)C(C)C)CSSC[C@@H]2NC(=O)[C@H](CCCCN)NC(=O)CNC(=O)[C@H](Cc3ccccc3)NC(=O)[C@H](Cc3cccc4ccccc34)NC(=O)[C@H](CCSC)NC(=O)CNC(=O)[C@H](C)NC(=O)[C@H](CCCCN)NC(=O)[C@H](CCCCN)NC(=O)[C@@H]3CSSC[C@@H](C(=O)N[C@H](C(=O)N4CCC[C@H]4C(=O)N[C@@H](CCCCN)C(=O)O)[C@@H](C)O)NC(=O)[C@H](Cc4c[nH]cn4)NC(=O)[C@H](CSSC[C@H](NC(=O)[C@H](CCC(N)=O)NC(=O)[C@H](CCCNC(=N)N)NC(=O)[C@H](CO)NC1=O)C(=O)N[C@@H](CC(C)C)C(=O)N[C@@H](CCC(=O)O)C(=O)N1CCC[C@H]1C(=O)N3)NC(=O)[C@H](CCCCN)NC(=O)CNC(=O)[C@H](CC(N)=O)NC(=O)[C@H](CCSC)NC2=O [R24Nal] (H-GVIINVKCKISRQCLEPCKKAGM[1Nal]FGKCMNGKCHCTPK-OH; disulfide 8-28, 14-33, 18-35) | 0.818 nM | 0.293 nM
5 | CC[C@H](C)[C@@H]1NC(=O)[C@H](CCCCN)NC(=O)[C@@H](NC(=O)[C@H](CCCCN)NC(=O)[C@@H](NC(=O)[C@H](CC(N)=O)NC(=O)[C@@H](NC(=O)[C@@H](NC(=O)[C@@H](NC(=O)CN)C(C)C)[C@@H](C)CC)[C@@H](C)CC)C(C)C)CSSC[C@@H]2NC(=O)[C@H](CCCCN)NC(=O)CNC(=O)[C@H](Cc3ccccc3)NC(=O)[C@H](CCCNC(=N)N)NC(=O)[C@H](CCSC)NC(=O)CNC(=O)[C@H](C)NC(=O)[C@H](CCCCN)NC(=O)[C@H](CCCCN)NC(=O)[C@@H]3CSSC[C@@H](C(=O)N[C@H](C(=O)N4CCC[C@H]4C(=O)N[C@@H](CCCCN)C(=O)O)[C@@H](C)O)NC(=O)[C@H](Cc4c[nH]cn4)NC(=O)[C@H](CSSC[C@H](NC(=O)[C@H](CCC(N)=O)NC(=O)[C@H](CCCNC(=N)N)NC(=O)[C@H](C)NC1=O)C(=O)N[C@@H](CC(C)C)C(=O)N[C@@H](CCC(=O)O)C(=O)N1CCC[C@H]1C(=O)N3)NC(=O)[C@H](CCCCN)NC(=O)CNC(=O)[C@H](CC(N)=O)NC(=O)[C@H](CCSC)NC2=O [S11A] (H-GVIINVKCKIARQCLEPCKKAGMRFGKCMNGKCHCTPK-OH; disulfide 8-28, 14-33, 18-35) | 0.11 nM | 0.09 nM
6 | CC[C@H](C)[C@@H]1NC(=O)[C@H](CCCCN)NC(=O)[C@@H](NC(=O)[C@H](CCCCN)NC(=O)[C@@H](NC(=O)[C@H](CC(N)=O)NC(=O)[C@@H](NC(=O)[C@@H](NC(=O)[C@@H](NC(=O)CN)C(C)C)[C@@H](C)CC)[C@@H](C)CC)C(C)C)CSSC[C@@H]2NC(=O)[C@H](CCCCN)NC(=O)CNC(=O)[C@H](Cc3ccccc3)NC(=O)[C@H](CCCNC(=N)N)NC(=O)[C@H](CCSC)NC(=O)CNC(=O)[C@H](C)NC(=O)[C@H](CCCCN)NC(=O)[C@H](CCCCN)NC(=O)[C@@H]3CSSC[C@@H](C(=O)N[C@@H](CCCNC(=N)N)C(=O)N4CCC[C@H]4C(=O)N[C@@H](CCCCN)C(=O)O)NC(=O)[C@H](Cc4c[nH]cn4)NC(=O)[C@H](CSSC[C@H](NC(=O)[C@H](CCC(N)=O)NC(=O)[C@H](CCCNC(=N)N)NC(=O)[C@H](CO)NC1=O)C(=O)N[C@@H](CC(C)C)C(=O)N[C@@H](CCC(=O)O)C(=O)N1CCC[C@H]1C(=O)N3)NC(=O)[C@H](CCCCN)NC(=O)CNC(=O)[C@H](CC(N)=O)NC(=O)[C@H](CCSC)NC2=O [T36R] (H-GVIINVKCKISRQCLEPCKKAGMRFGKCMNGKCHCRPK-OH; disulfide 8-28, 14-33, 18-35) | 10.1 nM | 9.7 nM
7 | CC[C@H](C)[C@H](NC(=O)[C@H](C)NC(=O)CN)C(=O)N[C@H](C(=O)N[C@@H](CC(N)=O)C(=O)N[C@H](C(=O)N[C@@H](CCCCN)C(=O)N[C@H]1CSSC[C@@H]2NC(=O)[C@H](CCCCN)NC(=O)CNC(=O)[C@H](Cc3ccccc3)NC(=O)[C@H](CCCNC(=N)N)NC(=O)[C@H](CCSC)NC(=O)CNC(=O)[C@H](C)NC(=O)[C@H](CCCCN)NC(=O)[C@H](CCCCN)NC(=O)[C@@H]3CSSC[C@@H](C(=O)N[C@H](C(=O)N4CCC[C@H]4C(=O)N[C@@H](CCCCN)C(=O)O)[C@@H](C)O)NC(=O)[C@H](Cc4c[nH]cn4)NC(=O)[C@H](CSSC[C@H](NC(=O)[C@H](CCC(N)=O)NC(=O)[C@H](CCCNC(=N)N)NC(=O)[C@H](CO)NC(=O)[C@H]([C@@H](C)CC)NC(=O)[C@H](CCCCN)NC1=O)C(=O)N[C@@H](CC(C)C)C(=O)N[C@@H](CCC(=O)O)C(=O)N1CCC[C@H]1C(=O)N3)NC(=O)[C@H](CCCCN)NC(=O)CNC(=O)[C@H](CC(N)=O)NC(=O)[C@H](CCSC)NC2=O)C(C)C)[C@@H](C)CC [V2A] (H-GAIINVKCKISRQCLEPCKKAGMRFGKCMNGKCHCTPK-OH; disulfide 8-28, 14-33, 18-35) | 0.104 nM | 0.0884 nM
8 | CC[C@H](C)[C@@H]1NC(=O)[C@H](CCCCN)NC(=O)[C@@H](NC(=O)[C@H](CCCCN)NC(=O)[C@@H](NC(=O)[C@H](CC(N)=O)NC(=O)[C@@H](NC(=O)[C@@H](NC(=O)[C@H](CCC(=O)O)NC(=O)CN)[C@@H](C)CC)[C@@H](C)CC)C(C)C)CSSC[C@@H]2NC(=O)[C@H](CCCCN)NC(=O)CNC(=O)[C@H](Cc3ccccc3)NC(=O)[C@H](CCCNC(=N)N)NC(=O)[C@H](CCSC)NC(=O)CNC(=O)[C@H](C)NC(=O)[C@H](CCCCN)NC(=O)[C@H](CCCCN)NC(=O)[C@@H]3CSSC[C@@H](C(=O)N[C@H](C(=O)N4CCC[C@H]4C(=O)N[C@@H](CCCCN)C(=O)O)[C@@H](C)O)NC(=O)[C@H](Cc4c[nH]cn4)NC(=O)[C@H](CSSC[C@H](NC(=O)[C@H](CCC(N)=O)NC(=O)[C@H](CCCNC(=N)N)NC(=O)[C@H](CO)NC1=O)C(=O)N[C@@H](CC(C)C)C(=O)N[C@@H](CCC(=O)O)C(=O)N1CCC[C@H]1C(=O)N3)NC(=O)[C@H](CCCCN)NC(=O)CNC(=O)[C@H](CC(N)=O)NC(=O)[C@H](CCSC)NC2=O [V2E] (H-GEIINVKCKISRQCLEPCKKAGMRFGKCMNGKCHCTPK-OH; disulfide 8-28, 14-33, 18-35) | 0.184 nM | 0.097 nM

Source: patent publication US7820623B2 (priority 2006, dated 2010)
